Literature values, collected in patent publication US10329260B2, “Human plasma kallikrein inhibitors” (BioCryst Pharmaceuticals, Inc., priority 2014, dated 2019).

B1: C1-inhibitor (protein, UniProt P05155 23-500, looked up)
Plasma protease C1 inhibitor: NPNATSSSSQDPESLQDRGEGKVATTVISKMLFVEPILEVSSLPTTNSTTNSATKITANTTDEPTTQPTTEPTTQPTIQPTQPTTQLPTDSPTQPTTGSFCPGPVTLCSDLESHSTEAVLGDALVDFSLKLYHAFSAMKKVETNMAFSPFSIASLLTQVLLGAGENTKTNLESILSYPKDFTCVHQALKGFTTKGVTSVSQIFHSPDLAIRDTFVNASRTLYSSSPRVLSNNSDANLELINTWVAKNTNNKISRLLDSLPSDTRLVLLNAIYLSAKWKTTFDPKKTRMEPFHFKNSVIKVPMMNSKKYPVAHFIDQTLKAKVGQLQLSHNLSLVILVPQNLKHRLEDMEQALSPSVFKAIMEKLEMSKFQPTLLTLPRIKVTTSQDMLSIMEKLEFFDFSYDLNLCGLTEDPDLQVSAMQHQTVLELTETGVEAAAASAISVARTLLVFEVQQPFLFVLWDQQHKFPVFMGRVYDPRA

Tests used:
Conditions in all cases: cited from earlier work
[1] = tested on: lipopolysaccharide (LPS)- or bacterial-induced sepsis in animals
sepsis patients = tested on: sepsis patients
[2] = tested on: mouse model of middle cerebral artery occlusion (MCAO)

Row | Molecule | lesions [1] | vascular permeability in multiple organs [1] | clinical outcome in sepsis patients (sepsis patients) | infarct size [2]
1 | Cl-inhibitor | reduce | reduce | Clinical improvement | –
2 | B1 | – | – | – | reduced
